According to patent US20070249988A1, “Electrotransport Delivery of Nesiritide” (ALZA CORPORATION, priority 2006, published 2007):

Legend:
[1] = In vitro electrotransport of nesiritide using hydrogel reservoirs; type: in vitro ADME; settings: heat separated human epidermis
Method: Suitable nesiritide flux rates can be achieved by selecting appropriate electrotransport conditions. […] The data shown in the figure were obtained using the transdermal delivery of nesiritide with a silver donor electrode at the anode and a silver chloride counter electrode at the cathode. […] The tests were performed on heat separated human epidermis.
In vitro electrotransport flux experiments were conducted using either synthetic polymeric Nulepore membranes or heat separated human cadaver epidermis. Custom-built horizontal diffusion cells were used for all in vitro skin flux experiments. Silver and silver chloride electrodes were used to apply current across the cell. Nesiritide hydrogels were placed between the silver anode and human heat-separated epidermis. In addition, a PVOH hydrogel containing a polymeric chloride source was placed between the silver anode and the drug hydrogel. A 1/10 dilution of Dulbecco's phosphate buffered saline (0.015 M NaCl) served as the receptor solution, which was continuously pumped through the receptor compartment. […]
(§1) The receptor samples were analyzed for nesiritide using a HPLC assay. In addition, as show in FIGS. 6B and 7B, formulations were also extracted for nesiritide and analyzed via a HPLC assay after use in a flux experiment.

[2] = In use stability of hydrogel formulations under electrotransport conditions (HPLC); type: physicochemical; settings: hydrogel formulation, over 24 hours, at 0.1 mA/cm^2 and 32° C.
Method: In vitro electrotransport flux experiments were conducted using either synthetic polymeric Nulepore membranes or heat separated human cadaver epidermis. Custom-built horizontal diffusion cells were used for all in vitro skin flux experiments. Silver and silver chloride electrodes were used to apply current across the cell. Nesiritide hydrogels were placed between the silver anode and human heat-separated epidermis. In addition, a PVOH hydrogel containing a polymeric chloride source was placed between the silver anode and the drug hydrogel. A 1/10 dilution of Dulbecco's phosphate buffered saline (0.015 M NaCl) served as the receptor solution, which was continuously pumped through the receptor compartment. At multiple time points, receptor samples for HPLC analysis were collected using a custom-built, automated Hanson Research Microette™ collection system.
as §1

[3] = Stability under donor conditions (buffer, RP-HPLC); type: physicochemical
Method: The stability of nesiritide at 32° C. under both donor and receptor conditions was evaluated.
The peptide was incubated in various buffer systems, both with and without human epidermis, at concentrations to be used for donor solutions. Experiments were conducted at 32° C. for 8 hours and 24 hours. The solutions were separated into portions and analyzed by RP-HPLC using the conditions described in the table below, both directly and after dilution to give a concentration of nesiritide at ˜100 μg/mL. In some cases, donor solutions were also removed and analyzed following ET Flux experiments.

[4] = In vitro electrotransport of nesiritide across heat-separated human epidermis (ET cells, solution donor); type: in vitro ADME
Method: Nesiritide was screened in vitro for its electrotransport (ET) properties with heat-separated human epidermis/stratum corneum (skin).
In vitro electrotransport of nesiritide across heat-separated human epidermis/stratum corneum was conducted using anodic drive with ET cells in three separate sets of experiments, using human epidermis from three sources under the conditions set forth in the table below.
The pH of donor solutions was monitored before and after the experiments. The amount of passive transport was determined in fully assembled ET cells, incubated at 32° C. for 1 hour, with subsequent analysis of the receptor solution by RP-HPLC. […] The applied constant current was 100 μA/cm^2. The receptor solution was removed for analysis and replenished at 2 hour intervals during the first eight hours of testing, and then after 24 hours and 26 hours. The voltage drop across each cell was monitored at intervals throughout the experiment. Additionally, after the completion of transport studies, the solutions from some donor compartments were removed and analyzed either for evidence of peptide degradation or for pH changes.
When comparing data obtained using different conditions during ET Flux, it is thought to be more useful to compare the median values for each case (Holladay, L. A. 1995; personal communications). The use of the median as a figure of merit for ET flux data decreases the impact of both measurement and recovery problems for cells with low transport values. It also minimizes the impact of data from ECs with higher values, which may represent skin that was partially leaking. In order to compare the values of the median from different studies, it is necessary to have an estimate of the confidence interval for each median. If the values for the medians are different, but the confidence intervals overlap, then the results are not truly distinguished. For this work with nesiritide, a Bootstrap method (Diciccio, T. J., Romano, J. P. A Review of Bootstrap Confidence Intervals, J. R. Statist Soc B, 1988; 50 338-354; Efron, B., Tibshirani, R. Bootstrap Methods for Standard errors, Confidence Intervals, and Other Measures of Statistical Accuracy, Statistical Science, 1986; 1 54-77) was used to determine 95% and 67% confidence intervals for the data sets compared. The method estimates the intervals using considerable amounts of computation; 32,000 trials of the algorithm were used for these analyses.

[5] = Isocratic hydrophobic interaction chromatography (HIC); type: physicochemical
Method: Nesiritide was analyzed by isocratic hydrophobic interaction chromatography (HIC) using the conditions set forth in the table below to estimate the peptide's hydrophobicity.

[6] = 8 hour delivery, study a & c, fresh skin, combine 1 mM & 3 mM, 100 μA/cm^2
[7] = 8 hour delivery, study a & c, fresh skin, donor 1 mM, 100 μA/cm^2
[8] = 8 hour delivery, study b, frozen skin, donor 1 mM, 100 μA/cm^2
[9] = 8 hour delivery, study b, frozen skin, donor 3 mM, 100 μA/cm^2
[10] = 8 hour delivery, study c, fresh skin, donor 3 mM, 100 μA/cm^2

SMILES: CC[C@H](C)[C@@H]1NC(=O)[C@H](CCCNC(=N)N)NC(=O)[C@H](CC(=O)O)NC(=O)[C@H](CCSC)NC(=O)[C@H](CCCCN)NC(=O)[C@H](CCCNC(=N)N)NC(=O)CNC(=O)[C@H](Cc2ccccc2)NC(=O)[C@@H](NC(=O)CNC(=O)[C@H](CO)NC(=O)CNC(=O)[C@H](CCC(N)=O)NC(=O)[C@@H](NC(=O)[C@H](CCSC)NC(=O)[C@H](CCCCN)NC(=O)[C@@H]2CCCN2C(=O)[C@@H](N)CO)C(C)C)CSSC[C@@H](C(=O)N[C@@H](CCCCN)C(=O)N[C@H](C(=O)N[C@@H](CC(C)C)C(=O)N[C@@H](CCCNC(=N)N)C(=O)N[C@@H](CCCNC(=N)N)C(=O)N[C@@H](Cc2c[nH]cn2)C(=O)O)C(C)C)NC(=O)CNC(=O)[C@H](CC(C)C)NC(=O)CNC(=O)[C@H](CO)NC(=O)[C@H](CO)NC(=O)[C@H](CO)NC(=O)[C@H](CO)NC1=O [Nesiritide, nesiritide]
- correlation between magnitude of applied current and steady state flux [1]: linear correlation
- in vitro transport efficiency ([1]; silver donor electrode at anode, silver chloride counter electrode at cathode): about 0.14 mg/mAhr
- in use stability under electrotransport conditions [2]: sufficient stability
- stability ([3]; pH 6, 7 or 8, without human epidermis, 32° C., 8-hour): considerable stability
- stability ([3]; pH 6 and 7, 24-hour incubation at 32° C.): remained stable
- degradation ([3]; pH 6 or 7, after 24 hours at 32° C.): minimal
- stability ([3]; pH 8, 24-hour incubation at 32° C.): considerable loss of nesiritide
- peptide degradation or change in disulfide bond in donor solutions ([3]; selected donor solutions following ET flux): no peptide degradation or change in the disulfide bond
- comprehensive median value for transport through human skin ([4]; 1 mM and 3 mM donor combined, 95% confidence interval of 1.2-2.1): 1.6 μg cm^−2h^−1
- Mean electrotransport flux ([4]; 1 mM and 3 mM, study a & c, sampling up to 8 h, fresh skin): 4.7 μg cm^−2 h^−1
- Mean electrotransport flux ([4]; 1 mM and 3 mM, study b, sampling 8 h–26 h, frozen skin): 1.5 μg cm^−2 h^−1
- Mean electrotransport flux ([4]; 1 mM and 3 mM, study b, sampling up to 8 h, frozen skin): 18.6 μg cm^−2 h^−1
- Mean electrotransport flux ([4]; 1 mM and 3 mM, study c, sampling 8 h–26 h, fresh skin): 1.3 μg cm^−2 h^−1
- Mean electrotransport flux [4, 6]: 4.7 μg cm^−2 h^−1
- Median electrotransport flux [4, 6]: 1.6 μg cm^−2 h^−1
- Mean electrotransport flux [4, 7]: 3.0 μg cm^−2 h^−1
- Median electrotransport flux [4, 7]: 1.6 μg cm^−2 h^−1
- Mean electrotransport flux [4, 8]: 10.7 μg cm^−2 h^−1
- Median electrotransport flux [4, 8]: 6.3 μg cm^−2 h^−1
- Mean electrotransport flux [4, 9]: 24.9 μg cm^−2 h^−1
- Median electrotransport flux [4, 9]: 5.6 μg cm^−2 h^−1
- Mean electrotransport flux [4, 10]: 8.2 μg cm^−2 h^−1
- Median electrotransport flux [4, 10]: 2.0 μg cm^−2 h^−1
- transport with respect to time ([4]; by 24 hours (FIG. 2)): approaches zero transport
- median values for transport, donor 1 mM versus 3 mM ([4]; comparison of donor 1 mM and 3 mM (FIG. 3)): not significantly different
- Median Transport ([4]; fresh skin, Mid-time 0): 0 μg cm^−2 h^−1
- Median Transport ([4]; fresh skin, Mid-time 0.6): 4.00 μg cm^−2 h^−1
- Median Transport ([4]; fresh skin, Mid-time 2.2): 2.01 μg cm^−2 h^−1
- Median Transport ([4]; fresh skin, Mid-time 4.2): 1.55 μg cm^−2 h^−1
- Median Transport ([4]; fresh skin, Mid-time 6.2): 1.06 μg cm^−2 h^−1
- Median Transport ([4]; fresh skin, Mid-time 16): 0.37 μg cm^−2 h^−1
- Median Transport ([4]; fresh skin, Mid-time 25): 0.80 μg cm^−2 h^−1
- free energy of adsorption to the HIC column, δΔ Gads ([5]; imidazole at pH 7, 10 mM ionic): 0.46 k J mole^−1
- hydrophilicity by HIC ([5]; pH 7.0 imidazole 10 mM ionic, 32° C.): high measured hydrophilicity
